# Assays:
# Experiment in all cases: Kinase profiling
# Assay type in all cases: biochemical
# FAK(h) = target: T1, FAK(h) (Homo sapiens, UniProt Q05397)
# T1 construct: purchased Eurofins Cerep SA (KinaseProfiler)
# Experimental: (§1) 380 kinases inhibitory activities of SKLB-D18 were conducted by Eurofins Cerep SA. The result was illustrated by kinase tree (http://www.kinhub.org/kinmap/).
# CDKL2(h) = target: T2, CDKL2(h) (Homo sapiens, UniProt Q92772)
# T2 construct: purchased Eurofins Cerep SA (KinaseProfiler)
# Experimental: as §1
# Rse(h) = target: T3, Rse(h) (Homo sapiens, UniProt Q06418)
# T3 construct: purchased Eurofins Cerep SA (KinaseProfiler)
# Experimental: as §1
# TGFBR1(h) = target: T4, TGFBR1(h) (Homo sapiens, UniProt P36897)
# T4 construct: purchased Eurofins Cerep SA (KinaseProfiler)
# Experimental: as §1
# PTK5(h) = target: T5, PTK5(h) (Homo sapiens, UniProt P42685)
# T5 construct: purchased Eurofins Cerep SA (KinaseProfiler)
# Experimental: as §1
# CLK3(h) = target: T6, CLK3(h) (Homo sapiens, UniProt P49761)
# T6 construct: purchased Eurofins Cerep SA (KinaseProfiler)
# T6 sequence (P49761 whole entry): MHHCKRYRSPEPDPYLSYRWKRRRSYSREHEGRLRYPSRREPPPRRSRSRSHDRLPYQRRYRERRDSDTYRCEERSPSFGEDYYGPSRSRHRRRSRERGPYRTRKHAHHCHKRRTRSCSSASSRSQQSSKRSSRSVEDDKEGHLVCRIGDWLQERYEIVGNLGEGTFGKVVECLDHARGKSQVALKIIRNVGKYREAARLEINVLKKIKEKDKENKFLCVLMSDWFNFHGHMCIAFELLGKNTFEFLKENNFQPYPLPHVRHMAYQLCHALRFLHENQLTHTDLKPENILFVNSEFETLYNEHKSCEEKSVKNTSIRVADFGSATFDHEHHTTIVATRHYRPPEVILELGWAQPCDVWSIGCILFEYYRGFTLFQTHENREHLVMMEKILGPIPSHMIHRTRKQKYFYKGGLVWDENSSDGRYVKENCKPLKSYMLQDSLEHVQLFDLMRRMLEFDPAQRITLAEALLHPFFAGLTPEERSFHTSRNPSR
# Experimental: as §1
# TrkB(h) = target: T7, TrkB(h) (Homo sapiens, UniProt Q16620)
# T7 construct: purchased Eurofins Cerep SA (KinaseProfiler)
# Experimental: as §1
# MAPKAP-K2(h) = target: T8, MAPKAP-K2(h) (Homo sapiens, UniProt P49137)
# T8 construct: purchased Eurofins Cerep SA (KinaseProfiler)
# Experimental: as §1
# Hck(h) = target: T9, Hck(h) (Homo sapiens, UniProt P08631)
# T9 construct: purchased Eurofins Cerep SA (KinaseProfiler)
# Experimental: as §1
# B-Raf(h) = target: T10, B-Raf(h) (Homo sapiens, UniProt P15056)
# T10 construct: purchased Eurofins Cerep SA (KinaseProfiler)
# Experimental: as §1
# Lck(h) activated = target: T11, Lck(h) activated (Homo sapiens, UniProt P06239)
# T11 construct: purchased Eurofins Cerep SA (KinaseProfiler)
# T11 sequence (P06239 whole entry): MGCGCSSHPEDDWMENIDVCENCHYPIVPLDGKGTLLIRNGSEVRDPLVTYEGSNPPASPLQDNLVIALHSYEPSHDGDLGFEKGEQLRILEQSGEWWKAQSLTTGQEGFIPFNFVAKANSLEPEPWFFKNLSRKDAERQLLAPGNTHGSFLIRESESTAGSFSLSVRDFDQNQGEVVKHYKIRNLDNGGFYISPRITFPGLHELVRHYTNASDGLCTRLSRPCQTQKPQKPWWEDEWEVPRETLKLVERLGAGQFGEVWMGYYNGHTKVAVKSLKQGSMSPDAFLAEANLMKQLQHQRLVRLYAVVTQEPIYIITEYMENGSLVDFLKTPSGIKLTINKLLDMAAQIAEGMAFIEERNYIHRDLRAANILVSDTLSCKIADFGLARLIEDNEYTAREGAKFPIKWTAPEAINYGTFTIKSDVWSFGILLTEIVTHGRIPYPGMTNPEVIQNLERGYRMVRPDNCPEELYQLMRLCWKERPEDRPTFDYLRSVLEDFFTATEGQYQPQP
# Experimental: as §1
# MAP4K4(h) = target: T12, MAP4K4(h) (Homo sapiens, UniProt O95819)
# T12 construct: purchased Eurofins Cerep SA (KinaseProfiler)
# Experimental: as §1
# LRRK2(h) = target: T13, LRRK2(h) (Homo sapiens, UniProt Q5S007)
# T13 construct: purchased Eurofins Cerep SA (KinaseProfiler)
# Experimental: as §1
# Plk4(h) = target: T14, Plk4(h) (Homo sapiens, UniProt O00444)
# T14 construct: purchased Eurofins Cerep SA (KinaseProfiler)
# Experimental: as §1
# IGF-1R(h), activated = target: T15, IGF-1R(h), activated (Homo sapiens, UniProt P08069)
# T15 construct: purchased Eurofins Cerep SA (KinaseProfiler)
# T15 sequence (P08069 31-1367): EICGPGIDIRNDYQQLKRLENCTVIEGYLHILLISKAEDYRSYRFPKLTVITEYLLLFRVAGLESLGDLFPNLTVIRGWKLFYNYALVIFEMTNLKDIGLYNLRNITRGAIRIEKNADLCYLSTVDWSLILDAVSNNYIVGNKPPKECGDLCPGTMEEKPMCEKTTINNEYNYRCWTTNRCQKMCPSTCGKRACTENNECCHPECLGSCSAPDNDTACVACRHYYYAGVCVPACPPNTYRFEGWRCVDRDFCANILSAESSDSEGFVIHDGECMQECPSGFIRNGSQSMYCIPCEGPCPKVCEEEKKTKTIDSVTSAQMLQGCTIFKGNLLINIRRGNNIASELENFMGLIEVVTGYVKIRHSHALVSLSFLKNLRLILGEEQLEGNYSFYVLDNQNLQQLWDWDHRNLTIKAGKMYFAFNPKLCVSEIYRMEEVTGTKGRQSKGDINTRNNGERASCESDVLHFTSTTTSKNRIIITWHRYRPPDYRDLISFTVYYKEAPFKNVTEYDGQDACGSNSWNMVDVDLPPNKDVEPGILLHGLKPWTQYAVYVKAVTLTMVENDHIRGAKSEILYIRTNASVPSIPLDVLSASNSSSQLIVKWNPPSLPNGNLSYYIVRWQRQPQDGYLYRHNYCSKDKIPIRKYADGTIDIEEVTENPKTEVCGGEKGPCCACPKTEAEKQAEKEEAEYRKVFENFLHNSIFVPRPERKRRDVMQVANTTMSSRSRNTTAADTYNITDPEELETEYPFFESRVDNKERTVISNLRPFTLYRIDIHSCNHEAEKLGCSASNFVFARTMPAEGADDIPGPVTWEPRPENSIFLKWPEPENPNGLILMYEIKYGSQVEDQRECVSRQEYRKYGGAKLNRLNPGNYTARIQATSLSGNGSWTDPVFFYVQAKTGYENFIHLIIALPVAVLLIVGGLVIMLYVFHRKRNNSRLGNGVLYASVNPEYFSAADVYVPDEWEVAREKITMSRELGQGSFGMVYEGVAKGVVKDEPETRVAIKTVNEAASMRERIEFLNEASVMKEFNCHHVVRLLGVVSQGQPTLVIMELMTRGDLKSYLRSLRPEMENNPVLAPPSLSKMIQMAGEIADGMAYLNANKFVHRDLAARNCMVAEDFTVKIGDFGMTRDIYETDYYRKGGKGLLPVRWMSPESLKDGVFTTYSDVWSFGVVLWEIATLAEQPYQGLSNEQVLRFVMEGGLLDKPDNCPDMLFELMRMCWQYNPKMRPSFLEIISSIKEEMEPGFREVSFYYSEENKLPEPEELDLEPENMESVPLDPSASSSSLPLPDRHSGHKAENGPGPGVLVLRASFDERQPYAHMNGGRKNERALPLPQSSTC
# Experimental: as §1
# ACTR2(h) = target: T16, ACTR2(h) (Homo sapiens, UniProt P27037)
# T16 construct: purchased Eurofins Cerep SA (KinaseProfiler)
# Experimental: as §1
# TAK1(h) = target: T17, TAK1(h) (Homo sapiens, UniProt O43318)
# T17 construct: purchased Eurofins Cerep SA (KinaseProfiler)
# Experimental: as §1
# Plk1(h) = target: T18, Plk1(h) (Homo sapiens, UniProt P53350)
# T18 construct: purchased Eurofins Cerep SA (KinaseProfiler)
# Experimental: as §1
# CDK14/cyclinY(h) = target: T19, CDK14/cyclinY(h) (Homo sapiens, UniProt O94921)
# T19 construct: purchased Eurofins Cerep SA (KinaseProfiler)
# T19 sequence (O94921 whole entry): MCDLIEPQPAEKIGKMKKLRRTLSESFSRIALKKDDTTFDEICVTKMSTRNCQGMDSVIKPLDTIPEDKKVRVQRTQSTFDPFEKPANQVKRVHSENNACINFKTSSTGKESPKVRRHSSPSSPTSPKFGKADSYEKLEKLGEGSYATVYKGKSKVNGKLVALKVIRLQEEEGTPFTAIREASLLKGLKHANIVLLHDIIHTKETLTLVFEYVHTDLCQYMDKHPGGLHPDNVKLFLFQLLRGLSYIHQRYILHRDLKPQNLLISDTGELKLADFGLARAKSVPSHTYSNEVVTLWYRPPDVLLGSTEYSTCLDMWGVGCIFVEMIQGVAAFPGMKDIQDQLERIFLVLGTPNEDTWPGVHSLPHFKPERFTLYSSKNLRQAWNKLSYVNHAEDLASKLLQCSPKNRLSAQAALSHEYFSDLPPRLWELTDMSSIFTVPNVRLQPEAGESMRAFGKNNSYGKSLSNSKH
# T19 sequence (Q8ND76 whole entry partner): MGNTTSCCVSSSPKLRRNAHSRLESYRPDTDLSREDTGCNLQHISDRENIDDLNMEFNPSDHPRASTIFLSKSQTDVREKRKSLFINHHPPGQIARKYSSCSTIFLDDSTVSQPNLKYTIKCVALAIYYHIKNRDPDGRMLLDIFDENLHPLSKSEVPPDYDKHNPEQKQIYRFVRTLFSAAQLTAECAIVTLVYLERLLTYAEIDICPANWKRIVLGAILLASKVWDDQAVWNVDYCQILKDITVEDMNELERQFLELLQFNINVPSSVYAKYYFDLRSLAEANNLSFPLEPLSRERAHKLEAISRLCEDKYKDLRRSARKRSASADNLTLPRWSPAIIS
# Experimental: as §1
# DDR1(h) = target: T20, DDR1(h) (Homo sapiens, UniProt Q08345)
# T20 construct: purchased Eurofins Cerep SA (KinaseProfiler)
# Experimental: as §1
# WNK2(h) = target: T21, WNK2(h) (Homo sapiens, UniProt Q9Y3S1)
# T21 construct: purchased Eurofins Cerep SA (KinaseProfiler)
# Experimental: as §1
# Blk(h) = target: T22, Blk(h) (Homo sapiens, UniProt P51451)
# T22 construct: purchased Eurofins Cerep SA (KinaseProfiler)
# T22 sequence (P51451 whole entry): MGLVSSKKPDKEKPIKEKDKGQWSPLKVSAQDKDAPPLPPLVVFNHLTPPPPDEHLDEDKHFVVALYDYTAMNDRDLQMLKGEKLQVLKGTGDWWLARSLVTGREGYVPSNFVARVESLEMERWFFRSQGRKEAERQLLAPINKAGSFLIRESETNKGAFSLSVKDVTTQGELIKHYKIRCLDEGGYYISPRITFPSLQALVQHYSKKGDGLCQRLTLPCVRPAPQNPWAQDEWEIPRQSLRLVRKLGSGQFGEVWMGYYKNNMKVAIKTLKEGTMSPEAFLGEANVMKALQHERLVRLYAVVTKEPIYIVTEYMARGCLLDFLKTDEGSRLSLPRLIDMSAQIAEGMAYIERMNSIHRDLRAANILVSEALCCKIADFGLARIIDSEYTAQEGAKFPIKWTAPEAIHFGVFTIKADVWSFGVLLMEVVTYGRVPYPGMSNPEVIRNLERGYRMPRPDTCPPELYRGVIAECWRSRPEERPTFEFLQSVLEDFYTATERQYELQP
# Experimental: as §1
# Fer(h) = target: T23, Fer(h) (Homo sapiens, UniProt P16591)
# T23 construct: purchased Eurofins Cerep SA (KinaseProfiler)
# Experimental: as §1
# CDK4/cyclinD3(h) = target: T24, CDK4/cyclinD3(h) (Homo sapiens, UniProt P11802)
# T24 construct: purchased Eurofins Cerep SA (KinaseProfiler)
# Experimental: as §1
# HIPK2(h) = target: T25, HIPK2(h) (Homo sapiens, UniProt Q9H2X6)
# T25 construct: purchased Eurofins Cerep SA (KinaseProfiler)
# Experimental: as §1
# Arg(h) = target: T26, Arg(h) (Homo sapiens, UniProt P42684)
# T26 construct: purchased Eurofins Cerep SA (KinaseProfiler)
# Experimental: as §1
# AMPKα2(h) = target: T27, AMPKα2(h) (Homo sapiens, UniProt P54646)
# T27 construct: purchased Eurofins Cerep SA (KinaseProfiler)
# Experimental: as §1
# Pyk2(h) = target: T28, Pyk2(h) (Homo sapiens, UniProt Q14289)
# T28 construct: purchased Eurofins Cerep SA (KinaseProfiler)
# Experimental: as §1
# STK39(h) = target: T29, STK39(h) (Homo sapiens, UniProt Q9UEW8)
# T29 construct: purchased Eurofins Cerep SA (KinaseProfiler)
# Experimental: as §1
# MLK3(h) = target: T30, MLK3(h) (Homo sapiens, UniProt Q16584)
# T30 construct: purchased Eurofins Cerep SA (KinaseProfiler)
# T30 sequence (Q16584 whole entry): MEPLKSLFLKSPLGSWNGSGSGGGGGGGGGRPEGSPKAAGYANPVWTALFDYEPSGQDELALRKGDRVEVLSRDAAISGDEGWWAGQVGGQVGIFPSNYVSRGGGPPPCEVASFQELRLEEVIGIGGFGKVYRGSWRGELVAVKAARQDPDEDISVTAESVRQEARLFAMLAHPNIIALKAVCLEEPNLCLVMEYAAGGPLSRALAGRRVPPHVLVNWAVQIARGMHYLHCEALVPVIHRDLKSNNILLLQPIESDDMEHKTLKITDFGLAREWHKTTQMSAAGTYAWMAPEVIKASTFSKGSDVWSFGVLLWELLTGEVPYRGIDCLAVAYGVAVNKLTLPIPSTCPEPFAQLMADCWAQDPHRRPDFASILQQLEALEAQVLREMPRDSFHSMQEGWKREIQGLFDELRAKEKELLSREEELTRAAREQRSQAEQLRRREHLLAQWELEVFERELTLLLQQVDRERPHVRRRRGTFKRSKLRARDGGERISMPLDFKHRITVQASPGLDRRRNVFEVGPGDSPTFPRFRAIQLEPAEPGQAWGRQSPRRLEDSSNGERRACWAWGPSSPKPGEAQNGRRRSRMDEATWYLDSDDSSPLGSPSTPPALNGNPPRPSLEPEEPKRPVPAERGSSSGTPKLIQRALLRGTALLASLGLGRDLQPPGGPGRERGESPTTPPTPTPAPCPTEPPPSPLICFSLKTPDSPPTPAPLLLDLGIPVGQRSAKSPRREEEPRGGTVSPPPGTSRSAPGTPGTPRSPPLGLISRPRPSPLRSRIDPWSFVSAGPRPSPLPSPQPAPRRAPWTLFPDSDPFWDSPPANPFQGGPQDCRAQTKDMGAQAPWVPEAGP
# Experimental: as §1
# TSSK1(h) = target: T31, TSSK1(h) (Homo sapiens, UniProt Q9BXA7)
# T31 construct: purchased Eurofins Cerep SA (KinaseProfiler)
# Experimental: as §1
# BrSK2(h) = target: T32, BrSK2(h) (Homo sapiens, UniProt Q8IWQ3)
# T32 construct: purchased Eurofins Cerep SA (KinaseProfiler)
# Experimental: as §1
# Fyn(h) = target: T33, Fyn(h) (Homo sapiens, UniProt P06241)
# T33 construct: purchased Eurofins Cerep SA (KinaseProfiler)
# Experimental: as §1
# Pim-2(h) = target: T34, Pim-2(h) (Homo sapiens, UniProt Q9P1W9)
# T34 construct: purchased Eurofins Cerep SA (KinaseProfiler)
# Experimental: as §1
# TAO1(h) = target: T35, TAO1(h) (Homo sapiens, UniProt Q7L7X3)
# T35 construct: purchased Eurofins Cerep SA (KinaseProfiler)
# Experimental: as §1
# TTBK2(h) = target: T36, TTBK2(h) (Homo sapiens, UniProt Q6IQ55)
# T36 construct: purchased Eurofins Cerep SA (KinaseProfiler)
# Experimental: as §1
# MAPK1(h) = target: T37, MAPK1(h) (Homo sapiens, UniProt P28482)
# T37 construct: purchased Eurofins Cerep SA (KinaseProfiler)
# T37 sequence (P28482 whole entry): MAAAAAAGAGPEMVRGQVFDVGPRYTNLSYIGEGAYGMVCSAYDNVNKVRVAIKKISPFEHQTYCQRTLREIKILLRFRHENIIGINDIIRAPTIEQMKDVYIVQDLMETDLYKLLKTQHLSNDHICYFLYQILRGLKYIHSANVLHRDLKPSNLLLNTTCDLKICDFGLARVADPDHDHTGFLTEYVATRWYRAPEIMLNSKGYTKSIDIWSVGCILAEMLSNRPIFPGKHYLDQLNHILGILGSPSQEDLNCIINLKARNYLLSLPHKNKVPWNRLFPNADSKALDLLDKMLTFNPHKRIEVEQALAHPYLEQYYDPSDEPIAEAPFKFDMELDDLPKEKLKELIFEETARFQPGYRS
# Experimental: as §1
# CaMKIδ(h) = target: T38, CaMKIδ(h) (Homo sapiens, UniProt Q8IU85)
# T38 construct: purchased Eurofins Cerep SA (KinaseProfiler)
# Experimental: as §1
# HIPK3(h) = target: T39, HIPK3(h) (Homo sapiens, UniProt Q9H422)
# T39 construct: purchased Eurofins Cerep SA (KinaseProfiler)
# Experimental: as §1
# EphA7(h) = target: T40, EphA7(h) (Homo sapiens, UniProt Q15375)
# T40 construct: purchased Eurofins Cerep SA (KinaseProfiler)
# Experimental: as §1
# Tie2 (h) = target: T41, Tie2 (h) (Homo sapiens, UniProt Q02763)
# T41 construct: purchased Eurofins Cerep SA (KinaseProfiler)
# Experimental: as §1
smiles,measurement,setting,value
"CN(C)Cc1cccc(Nc2ncc(Cl)c(-c3csc(C(=O)NN4CCOCC4)c3)n2)c1 [SKLB-D18, 4-(5-chloro-2-((3-((dimethylamino)methyl)phenyl)amino)pyrimidin-4-yl)-N-morpholinothiophene-2-carboxamide]",inhibition at 1 µM,FAK(h),17%
same,inhibition at 1 µM,CDKL2(h),39%
same,inhibition at 1 µM,Rse(h),12%
same,inhibition at 1 µM,TGFBR1(h),20%
same,inhibition at 1 µM,PTK5(h),35%
same,inhibition at 1 µM,CLK3(h),11%
same,inhibition at 1 µM,TrkB(h),46%
same,inhibition at 1 µM,MAPKAP-K2(h),1%
same,inhibition at 1 µM,Hck(h),20%
same,inhibition at 1 µM,B-Raf(h),59%
same,inhibition at 1 µM,Lck(h) activated,68%
same,inhibition at 1 µM,MAP4K4(h),14%
same,inhibition at 1 µM,LRRK2(h),65%
same,inhibition at 1 µM,Plk4(h),38%
same,inhibition at 1 µM,"IGF-1R(h), activated",0%
same,inhibition at 1 µM,ACTR2(h),10%
same,inhibition at 1 µM,TAK1(h),64%
same,inhibition at 1 µM,Plk1(h),-5%
same,inhibition at 1 µM,CDK14/cyclinY(h),58%
same,inhibition at 1 µM,DDR1(h),35%
same,inhibition at 1 µM,WNK2(h),24%
same,inhibition at 1 µM,Blk(h),-5%
same,inhibition at 1 µM,Fer(h),16%
same,inhibition at 1 µM,CDK4/cyclinD3(h),60%
same,inhibition at 1 µM,HIPK2(h),67%
same,inhibition at 1 µM,Arg(h),43%
same,inhibition at 1 µM,AMPKα2(h),60%
same,inhibition at 1 µM,Pyk2(h),46%
same,inhibition at 1 µM,STK39(h),37%
same,inhibition at 1 µM,MLK3(h),69%
same,inhibition at 1 µM,TSSK1(h),60%
same,inhibition at 1 µM,BrSK2(h),23%
same,inhibition at 1 µM,Fyn(h),60%
same,inhibition at 1 µM,Pim-2(h),26%
same,inhibition at 1 µM,TAO1(h),62%
same,inhibition at 1 µM,TTBK2(h),0%
same,inhibition at 1 µM,MAPK1(h),94%
same,inhibition at 1 µM,CaMKIδ(h),47%
same,inhibition at 1 µM,HIPK3(h),64%
same,inhibition at 1 µM,EphA7(h),38%
same,inhibition at 1 µM,Tie2 (h),44%

# From publication PMC11842588, “A first-in-class selective inhibitor of ERK1/2 and ERK5 overcomes drug resistance with a single-molecule strategy” (Signal Transduction and Targeted Therapy, 2025)
